What follows are compounds tested against T1, human BRD4 bromodomain II (Homo sapiens, UniProt O60885) (assay: Bromodomain binding assay (AlphaScreen), BRD4 BDII). Details: AlphaScreen assay, Table C2; read-out: BRD4 BDII IC50.
T1 construct: human BRD4 bromodomain II [based on Genbank NM_058243, residues 349-460]; host or cells: E. coli
Procedure: Bromodomain Binding Assay
The bromodomain binding assay utilizes AlphaScreen technology. Compounds compete with a biotinylated peptide ligand (from histone H4: aa 1-21, K5/K8/K12/K16Ac-biotin) for binding to a hexahistidine (His6)-tagged bromodomain. Peptide binding is detected by fluorescence signal after singlet oxygen energy transfer from peptide-bound AlphaScreen streptavidin-coated donor beads to His6-tagged bromodomain-bound nickel-chelate acceptor beads (PerkinElmer). Briefly, 8 μL 2.5× bromodomain (E. coli expressed, N-terminal His6-tagged human BRD4 bromodomain II [based on Genbank NM_058243, residues 349-460] or N-terminal His6-tagged human BRD4 bromodomain I [residues 44-170]) in reaction buffer (50 mM HEPES [pH 7.5], 100 mM NaCl, 0.05% CHAPS, 0.1% BSA, 1% DMSO) is added to wells of an assay plate (384-well low flange white, flat bottom, polystyrene microplate, Corning #3572; buffer only is added to some wells as a negative control). A compound concentration series (10 concentrations, 3-fold serial dilutions previously prepared in 100% DMSO, or 100% DMSO only negative control) is delivered to the assay plate with an Echo 550 acoustic liquid handler (Labcyte), followed by plate centrifugation and incubation for 30 minutes at room temperature. Then 4 μL 5× biotinylated peptide ligand is added, followed by plate centrifugation and gentle shaking for 30 minutes at room temperature to mix. After this incubation, 4 μL 5× donor beads are added, and the plate is centrifuged, followed by brief gentle shaking to mix. Finally, 4 μL 5× acceptor beads are added, and the plate is centrifuged, followed by gentle shaking for 60 minutes at room temperature in the dark. AlphaScreen signal (excitation/emission: 680 nm/520-620 nm) is detected with an EnSpire multimode plate reader (PerkinElmer). Percentage peptide binding is plotted as a function of concentration, and curve fitting is used to determine competitive compound binding ICsos.

IC50	SMILES
> 100 nM	CC(=O)Nc1ccc(-c2cccc(-c3cccc(Cl)c3)c2O)cc1F [Example 77, N-(3″-Chloro-3-fluoro-2′-hydroxy-[1,1′:3′,1″-terphenyl]-4-yl)acetamide]
> 100 nM	CC(=O)Nc1ccc(-c2cccc(-c3cccc(C(F)(F)F)c3)c2O)cc1F [Example 78, N-(3-Fluoro-2′-hydroxy-3″-(trifluoromethyl)-[1,1′:3′,1″-terphenyl]-4-yl)acetamide]
> 100 nM	CCc1cccc(-c2cccc(-c3ccc(NC(C)=O)c(F)c3)c2O)c1 [Example 79, N-(3″-Ethyl-3-fluoro-2′-hydroxy-[1,1′:3′,1″-terphenyl]-4-yl)acetamide]
> 100 nM	CC(=O)Nc1ccc(-c2cccc(-c3ccc(Cl)cc3)c2O)cc1F [Example 81, N-(4″-Chloro-3-fluoro-2′-hydroxy-[1,1′:3′,1″-terphenyl]-4-yl)acetamide]
> 100 nM	CCc1ccc(-c2cccc(-c3ccc(NC(C)=O)c(F)c3)c2O)cc1 [Example 82, N-(4″-Ethyl-3-fluoro-2′-hydroxy-[1,1′:3′,1″-terphenyl]-4-yl)acetamide]
> 100 nM	CC(=O)Nc1ccc(-c2cccc(-c3ccc(C(F)(F)F)cc3)c2O)cc1F [Example 83, N-(3-Fluoro-2′-hydroxy-4″-(trifluoromethyl)-[1,1′:3′,1″-terphenyl]-4-yl)acetamide]
> 100 nM	CC(=O)Nc1ccc(-c2cc(F)cc(-c3cnn(C4CCN(C)CC4)c3)c2O)cc1F [Example 84, N-(3,5′-Difluoro-2′-hydroxy-3′-(1-(1-methylpiperidin-4-yl)-1H-pyrazol-4-yl)-[1,1′-biphenyl]-4-yl)acetamide]
> 100 nM	CC(=O)Nc1ccc(-c2cccc(-c3cnc(-c4ccccc4)o3)c2O)cc1F [Example 85, N-(3-Fluoro-2′-hydroxy-3′-(2-phenyloxazol-5-yl)-[1,1′-biphenyl]-4-yl)acetamide]
10 to 100 nM	CC(=O)Nc1c(F)cc(-c2cccc(-c3cc(N4CCNCC4)no3)c2O)cc1F [Example 86, N-(3,5-Difluoro-2′-hydroxy-3′-(3-(piperazin-1-yl)isoxazol-5-yl)-[1,1′-biphenyl]-4-yl)acetamide 2,2,2-trifluoroacetate]
> 100 nM	CC(=O)Nc1ccc(-c2cccc(-c3ccc(NC(C)=O)c(OC(C)C)c3)c2O)cc1F [Example 87, N,N′-(3-Fluoro-2′-hydroxy-3″-isopropoxy-[1,1′:3′,1″-terphenyl]-4,4″-diyl)diacetamide]
> 100 nM	CCc1cc(-c2cccc(-c3ccc(NC(C)=O)c(F)c3)c2O)ccc1NC(C)=O [Example 88, N,N′-(3-Ethyl-3″-fluoro-2′-hydroxy-[1,1′:3′,1″-terphenyl]-4,4″-diyl)diacetamide]
10 to 100 nM	CC(=O)Nc1ccc(-c2cccc(-c3cc(N4CCNCC4)no3)c2O)cc1OC1CCCC1 [Example 89, N-(3-(Cyclopentyloxy)-2′-hydroxy-3′-(3-(piperazin-1-yl)isoxazol-5-yl)-[1,1′-biphenyl]-4-yl)acetamide 2,2,2-trifluoroacetate]
> 100 nM	CC(=O)Nc1ccc(-c2cccc(-c3ccc(Oc4ccccc4)cc3)c2O)cc1F [Example 90, N-(3-Fluoro-2′-hydroxy-4″-phenoxy-[1,1′:3′,1″-terphenyl]-4-yl)acetamide]
> 100 nM	CC(=O)Nc1ccc(-c2cccc(-c3cccc(Oc4ccccc4)c3)c2O)cc1F [Example 91, N-(3-Fluoro-2′-hydroxy-3″-phenoxy-[1,1′:3′,1″-terphenyl]-4-yl)acetamide]
> 100 nM	CCNC(=O)c1ccc(-c2cccc(-c3ccc(NC(C)=O)c(F)c3)c2O)cc1 [Example 92, 4″-Acetamido-N-ethyl-3″-fluoro-2′-hydroxy-[1,1′:3′,1″-terphenyl]-4-carboxamide]
> 100 nM	CCNC(=O)c1cccc(-c2cccc(-c3ccc(NC(C)=O)c(F)c3)c2O)c1 [Example 93, 4″-Acetamido-N-ethyl-3″-fluoro-2′-hydroxy-[1,1′:3′,1″-terphenyl]-3-carboxamide]
> 100 nM	CC(=O)Nc1ccc(-c2cccc(-c3ccc(N4CCOCC4)cc3)c2O)cc1F [Example 94, N-(3-Fluoro-2′-hydroxy-4″-morpholino-[1,1′:3′,1″-terphenyl]-4-yl)acetamide]

IC50	SMILES
> 100 nM	CC(=O)Nc1ccc(-c2cccc(-c3ccc(NC(C)=O)c(C(C)C)c3)c2O)cc1F [Example 96, N,N′-(3-Fluoro-2′-hydroxy-3″-isopropyl-[1,1′:3′,1″-terphenyl]-4,4″diyl)diacetamide]
> 100 nM	COc1cc(-c2cccc(-c3ccc(NC(C)=O)c(F)c3)c2O)ccn1 [Example 97, N-(3-Fluoro-2′-hydroxy-3′-(2-methoxypyridin-4-yl)-[1,1′-biphenyl]-4-yl)acetamide]
10 to 100 nM	COc1ccc(-c2cccc(-c3ccc(NC(C)=O)c(F)c3)c2O)cn1 [Example 98, N-(3-Fluoro-2′-hydroxy-3′-(6-methoxypyridin-3-yl)-[1,1′-biphenyl]-4-yl)acetamide]
10 to 100 nM	CC(=O)Nc1ccc(-c2cccc(-c3ccc(NC(C)=O)c(F)c3)c2O)cc1 [Example 99, N,N′-(3-Fluoro-2′-hydroxy-[1,1′:3′,1″-terphenyl]-4,4″-diyl)diacetamide]
> 100 nM	CC(=O)Nc1ccc(-c2cccc(-c3ccc4c(c3)CCCN4C(C)=O)c2O)cc1F [Example 101, N-(3′-(1-Acetyl-1,2,3,4-tetrahydroquinolin-6-yl)-3-fluoro-2′-hydroxy-[1,1′-biphenyl]-4-yl)acetamide]
10 to 100 nM	CC(=O)Nc1ccc(-c2cccc(-c3ccnnc3)c2O)cc1F [Example 102, N-(3-Fluoro-2′-hydroxy-3′-(pyridazin-4-yl)-[1,1′-biphenyl]-4-yl)acetamide]
10 to 100 nM	CC(=O)Nc1ccc(-c2cccc(-c3cncnc3)c2O)cc1F [Example 103, N-(3-Fluoro-2′-hydroxy-3′-(pyrimidin-5-yl)-[1,1′-biphenyl]-4-yl)acetamide]
> 100 nM	CC(=O)Nc1ccc(-c2cccc(-c3ccc4c(c3)OCCCN4C(C)=O)c2O)cc1F [Example 104, N-(3′-(5-Acetyl-2,3,4,5-tetrahydrobenzo[b][1,4]oxazepin-8-yl)-3-fluoro-2′-hydroxy-[1,1′-biphenyl]-4-yl)acetamide]
> 100 nM	CC(=O)Nc1ccc(-c2cccc(-c3cc(N4CCN(C(=O)c5ccccc5)CC4)no3)c2O)cc1 [Example 105, N-(3′-(3-(4-Benzoylpiperazin-1-yl)isoxazol-5-yl)-2′-hydroxy-[1,1′-biphenyl]-4-yl)acetamide]
> 100 nM	CC(=O)Nc1ccc(-c2cccc(-c3ccc(OC(C)C)cc3)c2O)cc1F [Example 106, N-(3-Fluoro-2′-hydroxy-4″-isopropoxy-[1,1′:3′,1″-terphenyl]-4-yl)acetamide]
> 100 nM	CC(=O)Nc1ccc(-c2cccc(-c3cccc(OC(C)C)c3)c2O)cc1F [Example 107, N-(3-Fluoro-2′-hydroxy-3″-isopropoxy-[1,1′:3′,1″-terphenyl]-4-yl)acetamide]
> 100 nM	CC(=O)Nc1ccc(-c2cccc(-c3ccc(N4CCNCC4)cc3)c2O)cc1F [Example 108, N-(3-Fluoro-2′-hydroxy-4″-(piperazin-1-yl)-[1,1′:3′,1″-terphenyl]-4-yl)acetamide]
10 to 100 nM	CC(=O)Nc1ccc(-c2cccc(-c3ccc(N)nc3)c2O)cc1F [Example 110, N-(3′-(6-Aminopyridin-3-yl)-3-fluoro-2′-hydroxy-[1,1′-biphenyl]-4-yl)acetamide]
10 to 100 nM	CC(=O)Nc1ccc(-c2cccc(-c3ccnc(N)c3)c2O)cc1F [Example 111, N-(3′-(2-Aminopyridin-4-yl)-3-fluoro-2′-hydroxy-[1,1′-biphenyl]-4-yl)acetamide]
10 to 100 nM	CC(=O)Nc1ccc(-c2cccc(-c3cnc(N4CCNCC4)o3)c2O)cc1F [Example 112, N-(3-Fluoro-2′-hydroxy-3′-(2-(piperazin-1-yl)oxazol-5-yl)-[1,1′-biphenyl]-4-yl)acetamide]
10 to 100 nM	O=C1CCCN1c1ccc(-c2cccc(-c3cc(N4CCNCC4)no3)c2O)cc1F [Example 113, 1-(3-Fluoro-2′-hydroxy-3′-(3-(piperazin-1-yl)isoxazol-5-yl)-[1,1′-biphenyl]-4-yl)pyrrolidin-2-one]
> 100 nM	CC(=O)Nc1ccc(-c2cccc(-c3cccc(OC4CCCC4)c3)c2O)cc1F [Example 115, N-(3″-(Cyclopentyloxy)-3-fluoro-2′-hydroxy-[1,1′:3′,1″-terphenyl]-4-yl)acetamide]

SMILES	IC50
CC(=O)Nc1c(F)cc(-c2cccc(-c3cc(N4CCNCC4)no3)c2O)cc1OC1CCC1 [Example 100, N-(3-Cyclobutoxy-5-fluoro-2′-hydroxy-3′-(3-(piperazin-1-yl)isoxazol-5-yl)-[1,1′-biphenyl]-4-yl)acetamide]	1 to 10 nM
CC(=O)Nc1ccc(-c2cccc(-c3cccc(OC4CCC4)c3)c2O)cc1F [Example 114, N-(3″-Cyclobutoxy-3-fluoro-2′-hydroxy-[1,1′:3′,1″-terphenyl]-4-yl)acetamide]	> 100 nM
